Measurements published in patent publication US20130017163A1, “HALOGENATED PHENOLS FOR DIAGNOSTICS, ANTIOXIDANT PROTECTION AND DRUG DELIVERY” (priority 2011, published 2013).

Legend:
[1] = tested on: sites of the wound or injury; details: mice with small injuries or wounds (cuts, scratches); data not shown
[2] = tested on: spontaneous tumors; details: 10 mg by gavage; X-ray imaging about two hours after; mice with spontaneous tumors; same mice before treatment showed no foci
Excerpt: As described above, oxidative foci or tumors may be identified by X-ray radiographic imaging of animals following administration of an indigogenic compound of the present invention. The radio-opaque indigo-like product formed and deposited with residence time in FROS-containing tumor tissues may then be detected.
In this example, female C3H/HeN mice were obtained as multiparous retired breeders (i.e., after 3 to 4 litters) that were positive for a mammary tumor virus. See, e.g., Sellitti, D. F., Tseng, Y-C., and Latham, K. R., “Effect of 3,5,3′-Triiodo-L-thyronine on the Incidence and Growth Kinetics of Spontaneous Mammary Tumors in C3H/HeN Mice,” Cancer Research, 41: 5015-19 (1981), the entire contents and disclosure of which are incorporated herein by reference. Mice showing spontaneous tumors were given 10 mg of 5-Iodo-Indoxyl-3′,5′-Diiodo-4′-hydroxy ether substrate (product of Example 4) by gavage. These mice were then subjected to X-ray imaging of the tumors about two hours after being fed the iodo-indigogenic compound. […] When developed, the X-ray film appears dark in areas where more transmission occurs and light in areas where less transmission occurs.

[3] = Cleavage of C—C bond during oxidative dehalogenation reaction; assay type: physicochemical; details: oxidative or free radical-mediated dehalogenation
Excerpt: It has also been discovered that other types of bonds or linkages may also be cleaved by oxidative or free radical-mediated dehalogenation of the phenol ring. For example, as described herein, it has now been observed that a carbonyl linkage, a nitrogen linkage, a sulfinyl linkage and possibly a C—C bond on the phenol ring may also be cleaved by the oxidative dehalogenation reaction. These bonds are also considered stable, and their cleavage in connection with the dehalogenation reaction is surprising as well. One caveat with the C—C bond or linkage is that depending on the particular starting compound structure and the substituents or groups attached to the halogenated phenol ring via the C—C bond, the C—C bond or linkage may or may not be generally cleaved during or following the dehalogenation reaction (see below). […] However, other compounds do become cleaved. It is important to note that whether a C—C bond of a particular starting compound is “cleavable,” or becomes cleaved, may not be all-or-nothing (i.e., the C—C bond may be considered non-cleavable even though a small or minute amount of cleavage may occur, and vice versa). Thus, the amount or percentage of cleavage may be partial with the alternatively cleaved or non-cleaved product being possibly undetected or minute. […]

[4] = Spontaneous ether cleavage and deiodination in buffered aqueous solution exposed to sunlight; assay type: physicochemical; details: about 1 mM in carbonate buffer (pH 8.0), sunlight for about one hour
Excerpt: In contrast to reductive deiodination, spontaneous dehalogenation (e.g., deiodination) of a halogentated phenol ring in the presence of an oxidizing agent(s) and/or free radical(s) with cleavage of a chemical linkage, such as an ether linkage, etc., between the phenol ring and a conjugated compound has not been described. According to the present invention, cleavage of the ether linkage between the aromatic rings of thyroid hormone may form visibly colored quinone and iodine-containing products in buffered aqueous solutions in vitro, and this ether cleavage reaction may be accelerated under basic pH conditions and with exposure to ionizing radiation or light. These conditions favor the increased formation of oxidizing agents and/or free radicals, which are believed to promote the reaction. […] A quinone and an iodotyrosine product are also formed by cleavage of the ether linkage during the reaction. According to embodiments of the present invention, a spontaneous reaction of dehalogenation and cleavage of a chemical bond is proposed for the targeted delivery and release of a drug compound at or to sites of inflammation or disease. This spontaneous reaction is further proposed as a basis for scavenging free radicals and/or oxidative agents (FROS) as well as for the creation of a detectable compound(s) that may be used for diagnostic purposes.

For `Oc1c(I)cc(Oc2c[nH]c3ccc(I)cc23)cc1I` [Example 4, 5-Iodo-Indolyl-3′,5′-Diiodo-4′-hydroxyl-p-Phenol Ether], the “X-ray detection at sites of wound or injury” value [1] was “strong detection was observed at the sites of the wound or injury” and the “radio-opaque tumor regions or foci by X-ray” value [2] was “radio-opaque tumor regions or foci”.
For `N[C@@H](Cc1ccc(O)c(I)c1)C(=O)O` [MIT, 3-iodo-4-hydroxy-L-phenylalanine], the “cleavage of C—C bond with the dehalogenation reaction” value [3] was “generally not to be cleaved”.
With `N[C@@H](Cc1cc(I)c(Oc2cc(I)c(O)c(I)c2)c(I)c1)C(=O)O` [thyroxine] the “cleavage of ether linkage with iodide release” value [4] was “the ether linkage is broken spontaneously”.
